From article PMC6680932, “Structure–Antioxidant–Antiproliferative Activity Relationships of Natural C7 and C7–C8 Hydroxylated Flavones and Flavanones” (Antioxidants, 2019)

Assays:
[1] = Stability of flavonoids in DMSO (control), HPLC; assay type: physicochemical; settings: 3 h of incubation
Experimental: (§1) Flavonoids were dissolved (as described in Section 2.4) to the concentration of 100 µg/mL. The solutions corresponding to the solutions before the administration to the cell cultures were incubated in 96-well plates for 3 h and transferred to microtubes containing 400 µL of cold methanol (−20 °C) and kept at −20 °C for 1 h. After centrifugation at 12,000× g for 10 min, samples were analyzed by HPLC. Control experiments were also carried out to determine the stability of flavonoids in DMSO under analogous conditions.

[2] = system: LoVo (colon cancer); test: Antiproliferative activity in vitro, SRB assay; assay type: cell-based, human; settings: Homo sapiens, LoVo, 72 h, 72 h exposure, SRB; read-out: IC50 ± SD LoVo
Experimental: (§2) The antiproliferative studies were performed in vitro using human cancer cell lines—MV-4-11 (biphenotypic B myelomonocytic leukemia), MCF7 (breast carcinoma), LoVo (colon cancer), LoVo/DX (colon cancer doxorubicin-resistant), and DU 145 (prostate cancer)—and normal human cell lines—MCF 10A (breast cells) and HLMEC (lung microvascular endothelial cells). The cell lines MV-4-11, LoVo, DU 145, and MCF 10A were obtained from the American Type Culture Collection (Rockville, Maryland, USA), MCF7 from the European Collection of Authenticated Cell Cultures (ECACC, Salisbury, UK), LoVo/DX courtesy of Professor E. Borowski (Technical University of Gdansk, Poland), and HLMECs (which had been already immortalized by transfection with pSV3-neoplasmid containing large T-antigen gene) were the kind gift of Professor Claudine Kieda (Center for Molecular Biophysics, Orleans, France). The cell lines are being maintained in the Hirszfeld Institute of Immunology and Experimental Therapy, Polish Academy of Sciences (HIIET, PAS), Wroclaw, Poland. All cell lines were grown at 37 °C with 5% CO2 humidified atmosphere. The MV-4-11 cells were cultured in RPMI 1640 medium with GlutaMAX (Gibco, Scotland, UK), supplemented with 1 mM sodium pyruvate and 10% fetal bovine serum (both from Sigma-Aldrich, Poznan, Poland). The MCF7 cells were cultured in Eagle medium (HIIET, PAS, Wroclaw, Poland) supplemented with 2 mM L-glutamine, 10% fetal bovine serum, 1% nonessential amino acid solution, and 0.8 mg/L of insulin (all from Sigma-Aldrich, Poznan, Poland). The LoVo and LoVo/DX cells were cultured in a 1:1 (v/v) mixture of RPMI 1640 and Opti-MEM (both HIIET, PAS, Wroclaw, Poland), supplemented with 1 mM sodium pyruvate, 2 mM L-glutamine, and 5% fetal bovine serum (all from Sigma-Aldrich, Poznan, Poland). For LoVo/DX cells, additionally 10 µg/100 mL of doxorubicin (Accord Healthcare) was added to the medium. DU 145 cells were cultured in Eagle medium (HIIET, PAS, Wroclaw, Poland) supplemented with 1 mM sodium pyruvate, 4 mM L-glutamine, and 10% fetal bovine serum (all from Sigma-Aldrich, Poznan, Poland). The MCF 10A cells were cultured in the F-12 nutrient mixture (Gibco, Scotland, UK), supplemented with 5% horse serum (Gibco, Scotland, UK), 0.05 μg/mL of cholera toxin (Vibrio cholerae), 0.5 μg/mL of hydrocortisone, 10 μg/mL of insulin, and 20 ng/mL of human epidermal growth factor (all from Sigma-Aldrich, Poznan, Poland). The HLMEC cells were cultured in the RPMI 1640 medium (HIIET, PAS, Wroclaw, Poland) with the addition of 2 mM L-glutamine (Sigma-Aldrich, Poznan, Poland) and 10% fetal bovine serum (GE Healthcare). All culture media were supplemented with 100 units/mL penicillin (Polfa Tarchomin S.A., Warsaw, Poland) and 100 µg/mL streptomycin (Sigma-Aldrich, Poznan, Poland). Twenty-four hours before addition of the tested agents, the cells were plated in 96-well plates (Sarstedt, Germany) at a density of 1 × 10^4 (1 × 10^3 for HLMEC and 0.75 × 10^4 for MCF7) cells per well in 100 μL of culture medium.
(§3) Tested compounds were dissolved in DMSO and then diluted in a 1:1 (v/v) mixture of RPMI 1640 (HIIET, PAS, Wroclaw, Poland) and Opti-MEM (Gibco, Scotland, UK) medium supplemented with 2 mM L-glutamine (Sigma-Aldrich, Poznan, Poland), 5% fetal bovine serum (GE Healthcare), 100 units/mL penicillin (Polfa Tarchomin S.A., Warsaw, Poland), and 100 µg/mL streptomycin (Sigma-Aldrich, Poznan, Poland). The antiproliferative effects of the flavonoids were examined after 72 h of exposure of the cultured cells to varying concentrations of the tested agents (from 0.1 to 100 μg/mL) using the MTT (for MV-4-11 cells) or SRB assay described below. Cisplatin (chemotherapy drug used to treat a number of cancers) was used as a positive control. The results are presented as an inhibitory concentration 50 (IC50), which is the concentration of the tested agent that inhibits proliferation of the cell population by 50%. IC50 values for each experiment were calculated separately. […]

[3] = system: HLMEC (lung microvascular endothelial cells); test: Antiproliferative activity in vitro, SRB assay; assay type: cell-based, human; settings: Homo sapiens, Endothelial cell; 72 h exposure, SRB; normal cell line; read-out: IC50 ± SD HLMEC
Experimental: as §2, §3

[4] = Stability of flavonoids before administration to the cell cultures (diluted in RPMI 1640/Opti-MEM medium), HPLC; assay type: physicochemical; settings: 100 µg/mL, medium with 2 mM L-glutamine, 5% fetal bovine serum, penicillin, streptomycin; 3 h incubation
Experimental: Tested compounds were dissolved in DMSO and then diluted in a 1:1 (v/v) mixture of RPMI 1640 (HIIET, PAS, Wroclaw, Poland) and Opti-MEM (Gibco, Scotland, UK) medium supplemented with 2 mM L-glutamine (Sigma-Aldrich, Poznan, Poland), 5% fetal bovine serum (GE Healthcare), 100 units/mL penicillin (Polfa Tarchomin S.A., Warsaw, Poland), and 100 µg/mL streptomycin (Sigma-Aldrich, Poznan, Poland). The antiproliferative effects of the flavonoids were examined after 72 h of exposure of the cultured cells to varying concentrations of the tested agents (from 0.1 to 100 μg/mL) using the MTT (for MV-4-11 cells) or SRB assay described below. Cisplatin (chemotherapy drug used to treat a number of cancers) was used as a positive control. The results are presented as an inhibitory concentration 50 (IC50), which is the concentration of the tested agent that inhibits proliferation of the cell population by 50%. IC50 values for each experiment were calculated separately.
as §1

O=c1cc(-c2ccc(O)cc2)oc2cc(O)cc(O)c12 [Compound 2, apigenin]
compound observed after incubation in DMSO [1]: over 99%
IC50 [2]: 13.8 ± 1.38 µM
IC50 [3]: 14.1 ± 0.91 µM
stability after dilution with 1:1 RPMI 1640/Opti-MEM medium [4]: stable

O=C1C[C@@H](c2ccc(O)cc2)Oc2cc(O)cc(O)c21 [Compound 6, naringenin]
compound observed after incubation in DMSO [1]: over 99%
IC50 [2]: 121 ± 4.3 µM
IC50 [3]: 114 ± 18.6 µM
stability after dilution with 1:1 RPMI 1640/Opti-MEM medium [4]: stable

O=c1cc(-c2ccc(O)cc2)oc2c(O)c(O)cc(O)c12 [Compound 10, 8-hydroxyapigenin]
compound observed after incubation in DMSO [1]: over 99%
IC50 [2]: 235 ± 57.1 µM
IC50 [3]: 122 ± 14.4 µM
stability after dilution with 1:1 RPMI 1640/Opti-MEM medium [4]: complete decomposition
